Measured values taken from the NIST ThermoML archive (doi:10.1016/j.fluid.2009.08.011).
Numbers after ± are expanded uncertainties.

Assay: cn = amount concentration of the nth substance listed, in mol/dm3
Conditions: 101 kPa, Liquid, Alternating current cell with electrodes

CCCCn1cc[n+](C)c1.[Br-] [1-butyl-3-methylimidazolium bromide] + O
molar conductivity (298.15 K, c1 = 0.0004937): 0.0131 ± 0.0013 S·m2/mol | molar conductivity (298.15 K, c1 = 0.0008655): 0.0131 ± 0.0013 S·m2/mol | molar conductivity (298.15 K, c1 = 0.001621): 0.013 ± 0.0013 S·m2/mol | molar conductivity (298.15 K, c1 = 0.002706): 0.0129 ± 0.0013 S·m2/mol | molar conductivity (298.15 K, c1 = 0.003761): 0.0128 ± 0.0013 S·m2/mol | molar conductivity (298.15 K, c1 = 0.005815): 0.0126 ± 0.0013 S·m2/mol | molar conductivity (298.15 K, c1 = 0.008089): 0.0125 ± 0.0013 S·m2/mol | molar conductivity (298.15 K, c1 = 0.01047): 0.0123 ± 0.0012 S·m2/mol | molar conductivity (298.15 K, c1 = 0.01259): 0.0122 ± 0.0012 S·m2/mol | molar conductivity (308.15 K, c1 = 0.0004882): 0.0137 ± 0.0014 S·m2/mol | molar conductivity (308.15 K, c1 = 0.00104): 0.0135 ± 0.0014 S·m2/mol | molar conductivity (308.15 K, c1 = 0.001567): 0.0135 ± 0.0013 S·m2/mol | molar conductivity (308.15 K, c1 = 0.001953): 0.0134 ± 0.0013 S·m2/mol | molar conductivity (308.15 K, c1 = 0.002955): 0.0132 ± 0.0013 S·m2/mol | molar conductivity (308.15 K, c1 = 0.00388): 0.0131 ± 0.0013 S·m2/mol | molar conductivity (308.15 K, c1 = 0.004882): 0.0129 ± 0.0013 S·m2/mol | molar conductivity (308.15 K, c1 = 0.006552): 0.0128 ± 0.0013 S·m2/mol | molar conductivity (308.15 K, c1 = 0.008273): 0.0127 ± 0.0013 S·m2/mol | molar conductivity (308.15 K, c1 = 0.009904): 0.0125 ± 0.0013 S·m2/mol | molar conductivity (308.15 K, c1 = 0.01206): 0.0124 ± 0.0012 S·m2/mol | molar conductivity (318.15 K, c1 = 0.000457): 0.015 ± 0.0015 S·m2/mol | molar conductivity (318.15 K, c1 = 0.001096): 0.0148 ± 0.0015 S·m2/mol | molar conductivity (318.15 K, c1 = 0.001486): 0.0147 ± 0.0015 S·m2/mol | molar conductivity (318.15 K, c1 = 0.002393): 0.0143 ± 0.0014 S·m2/mol | molar conductivity (318.15 K, c1 = 0.003324): 0.014 ± 0.0014 S·m2/mol | molar conductivity (318.15 K, c1 = 0.004652): 0.0138 ± 0.0014 S·m2/mol | molar conductivity (318.15 K, c1 = 0.006235): 0.0134 ± 0.0013 S·m2/mol | molar conductivity (318.15 K, c1 = 0.008073): 0.0131 ± 0.0013 S·m2/mol | molar conductivity (318.15 K, c1 = 0.009991): 0.0129 ± 0.0013 S·m2/mol | molar conductivity (318.15 K, c1 = 0.012): 0.0126 ± 0.0013 S·m2/mol | molar conductivity (318.15 K, c1 = 0.0138): 0.0124 ± 0.0012 S·m2/mol | molar conductivity (328.15 K, c1 = 0.00043): 0.0158 ± 0.0016 S·m2/mol | molar conductivity (328.15 K, c1 = 0.000847): 0.0157 ± 0.0016 S·m2/mol | molar conductivity (328.15 K, c1 = 0.001805): 0.0154 ± 0.0015 S·m2/mol | molar conductivity (328.15 K, c1 = 0.002719): 0.0152 ± 0.0015 S·m2/mol | molar conductivity (328.15 K, c1 = 0.003628): 0.015 ± 0.0015 S·m2/mol | molar conductivity (328.15 K, c1 = 0.005125): 0.0147 ± 0.0015 S·m2/mol | molar conductivity (328.15 K, c1 = 0.006801): 0.0144 ± 0.0014 S·m2/mol | molar conductivity (328.15 K, c1 = 0.008998): 0.014 ± 0.0014 S·m2/mol | molar conductivity (328.15 K, c1 = 0.01111): 0.0136 ± 0.0014 S·m2/mol | molar conductivity (328.15 K, c1 = 0.01358): 0.0132 ± 0.0013 S·m2/mol

CCCCn1cc[n+](C)c1.[Cl-] [1-butyl-3-methylimidazolium chloride] + O
molar conductivity (298.15 K, c1 = 0.0004271): 0.0109 ± 0.0011 S·m2/mol | molar conductivity (298.15 K, c1 = 0.0009378): 0.0108 ± 0.0011 S·m2/mol | molar conductivity (298.15 K, c1 = 0.001755): 0.0107 ± 0.0011 S·m2/mol | molar conductivity (298.15 K, c1 = 0.002553): 0.0106 ± 0.0011 S·m2/mol | molar conductivity (298.15 K, c1 = 0.002999): 0.0106 ± 0.0011 S·m2/mol | molar conductivity (298.15 K, c1 = 0.003835): 0.0105 ± 0.0011 S·m2/mol | molar conductivity (298.15 K, c1 = 0.004438): 0.0104 ± 0.001 S·m2/mol | molar conductivity (298.15 K, c1 = 0.004986): 0.0104 ± 0.001 S·m2/mol | molar conductivity (298.15 K, c1 = 0.005608): 0.0103 ± 0.001 S·m2/mol | molar conductivity (298.15 K, c1 = 0.006388): 0.0103 ± 0.001 S·m2/mol | molar conductivity (298.15 K, c1 = 0.007112): 0.0102 ± 0.001 S·m2/mol | molar conductivity (298.15 K, c1 = 0.008217): 0.0101 ± 0.001 S·m2/mol | molar conductivity (298.15 K, c1 = 0.008932): 0.0101 ± 0.001 S·m2/mol | molar conductivity (298.15 K, c1 = 0.009777): 0.00999 ± 0.001 S·m2/mol | molar conductivity (298.15 K, c1 = 0.01041): 0.00996 ± 0.001 S·m2/mol | molar conductivity (298.15 K, c1 = 0.01119): 0.00983 ± 0.00098 S·m2/mol | molar conductivity (298.15 K, c1 = 0.01216): 0.00978 ± 0.00098 S·m2/mol | molar conductivity (298.15 K, c1 = 0.01304): 0.00968 ± 0.00097 S·m2/mol | molar conductivity (298.15 K, c1 = 0.01389): 0.00962 ± 0.00096 S·m2/mol | molar conductivity (308.15 K, c1 = 0.0006735): 0.0111 ± 0.0011 S·m2/mol | molar conductivity (308.15 K, c1 = 0.001508): 0.011 ± 0.0011 S·m2/mol | molar conductivity (308.15 K, c1 = 0.002241): 0.011 ± 0.0011 S·m2/mol | molar conductivity (308.15 K, c1 = 0.002432): 0.0109 ± 0.0011 S·m2/mol | molar conductivity (308.15 K, c1 = 0.003588): 0.0108 ± 0.0011 S·m2/mol | molar conductivity (308.15 K, c1 = 0.004875): 0.0106 ± 0.0011 S·m2/mol | molar conductivity (308.15 K, c1 = 0.006007): 0.0104 ± 0.001 S·m2/mol | molar conductivity (308.15 K, c1 = 0.008219): 0.0103 ± 0.001 S·m2/mol | molar conductivity (308.15 K, c1 = 0.01013): 0.0103 ± 0.001 S·m2/mol | molar conductivity (308.15 K, c1 = 0.01259): 0.0102 ± 0.001 S·m2/mol | molar conductivity (308.15 K, c1 = 0.01457): 0.0101 ± 0.001 S·m2/mol | molar conductivity (308.15 K, c1 = 0.01708): 0.01 ± 0.001 S·m2/mol | molar conductivity (308.15 K, c1 = 0.01958): 0.01 ± 0.001 S·m2/mol | molar conductivity (308.15 K, c1 = 0.02199): 0.00998 ± 0.001 S·m2/mol | molar conductivity (318.15 K, c1 = 0.000681): 0.0119 ± 0.0012 S·m2/mol | molar conductivity (318.15 K, c1 = 0.001635): 0.0117 ± 0.0012 S·m2/mol | molar conductivity (318.15 K, c1 = 0.002388): 0.0113 ± 0.0011 S·m2/mol | molar conductivity (318.15 K, c1 = 0.003429): 0.0111 ± 0.0011 S·m2/mol | molar conductivity (318.15 K, c1 = 0.004391): 0.0109 ± 0.0011 S·m2/mol | molar conductivity (318.15 K, c1 = 0.006618): 0.0107 ± 0.0011 S·m2/mol | molar conductivity (318.15 K, c1 = 0.008725): 0.0105 ± 0.001 S·m2/mol | molar conductivity (318.15 K, c1 = 0.01078): 0.0103 ± 0.001 S·m2/mol | molar conductivity (318.15 K, c1 = 0.01367): 0.0101 ± 0.001 S·m2/mol | molar conductivity (318.15 K, c1 = 0.01671): 0.00997 ± 0.001 S·m2/mol | molar conductivity (318.15 K, c1 = 0.02016): 0.00981 ± 0.00098 S·m2/mol | molar conductivity (318.15 K, c1 = 0.02295): 0.0097 ± 0.00097 S·m2/mol | molar conductivity (318.15 K, c1 = 0.02493): 0.00962 ± 0.00096 S·m2/mol | molar conductivity (328.15 K, c1 = 0.0006908): 0.0125 ± 0.0012 S·m2/mol | molar conductivity (328.15 K, c1 = 0.0007995): 0.0124 ± 0.0012 S·m2/mol | molar conductivity (328.15 K, c1 = 0.001327): 0.0123 ± 0.0012 S·m2/mol | molar conductivity (328.15 K, c1 = 0.002041): 0.0121 ± 0.0012 S·m2/mol | molar conductivity (328.15 K, c1 = 0.002693): 0.012 ± 0.0012 S·m2/mol | molar conductivity (328.15 K, c1 = 0.004479): 0.0115 ± 0.0011 S·m2/mol | molar conductivity (328.15 K, c1 = 0.006054): 0.0113 ± 0.0011 S·m2/mol | molar conductivity (328.15 K, c1 = 0.007413): 0.0111 ± 0.0011 S·m2/mol | molar conductivity (328.15 K, c1 = 0.008786): 0.0109 ± 0.0011 S·m2/mol | molar conductivity (328.15 K, c1 = 0.01028): 0.0108 ± 0.0011 S·m2/mol | molar conductivity (328.15 K, c1 = 0.01229): 0.0106 ± 0.0011 S·m2/mol | molar conductivity (328.15 K, c1 = 0.01504): 0.0104 ± 0.001 S·m2/mol | molar conductivity (328.15 K, c1 = 0.01749): 0.0102 ± 0.001 S·m2/mol
